Data published in patent US20240391899A1, “POTENT AND SELECTIVE INHIBITORS OF IRAK4” (Dana-Farber Cancer Institute, Inc., priority 2021, published 2024).

Key:
[1] = biological target: T1, IRAK4 (Homo sapiens, UniProt Q9NWZ3); experiment: IRAK4 enzymatic assay (Z'-LYTE, ThermoFisher); assay type: biochemical; settings: 60 minutes at room temperature
T1 construct: purchased ThermoFisher
T1 sequence (Q9NWZ3 1-460): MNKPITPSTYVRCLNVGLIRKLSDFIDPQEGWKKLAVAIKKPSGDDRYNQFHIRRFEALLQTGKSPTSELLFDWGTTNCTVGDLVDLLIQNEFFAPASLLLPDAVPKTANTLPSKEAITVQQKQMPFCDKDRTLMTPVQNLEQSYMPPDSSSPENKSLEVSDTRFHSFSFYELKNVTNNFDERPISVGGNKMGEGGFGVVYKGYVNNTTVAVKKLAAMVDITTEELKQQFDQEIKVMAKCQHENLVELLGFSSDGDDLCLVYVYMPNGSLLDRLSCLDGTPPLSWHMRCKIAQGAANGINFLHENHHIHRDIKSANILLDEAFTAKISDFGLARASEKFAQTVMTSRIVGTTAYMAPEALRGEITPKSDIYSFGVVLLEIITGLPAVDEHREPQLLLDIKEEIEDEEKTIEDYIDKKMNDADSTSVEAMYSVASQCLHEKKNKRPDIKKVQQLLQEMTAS
Procedure: To measure the IC50 values of compounds herein against IRAK4, a Z′-LYTE assay (ThermoFisher) was used. Briefly, 2.5 μL of different concentrations of the compounds in 1% DMSO were added to 2.4 μL kinase buffer (50 mM HEPES pH 7.5, 0.01% BRIJ-35, 10 mM MgCl2, 1 mM EGTA) in each well of a 384-well plate (Corning Cat. #3676). 5 μL of 2×IRAK4/Ser/Thr 07 mixture (prepared in 50 mM HEPES pH 7.5, 0.01% BRIJ-35, 10 mM MnCl2, 2 mM DTT, and 0.02% NaN3) and 2.5 μL of 4×ATP solution (4×ATP, 50 mM HEPES, pH 7.5, 0.01% BRIJ-35, 10 mM MgCl2, 1 mM EGTA) were added to each well. The plate was shaken for 30 seconds, and then incubated at room temperature for 60 minutes. 5 μL of a 1:100000 dilution of Development Reagent A was added to each well. The plate was shaken for 30 seconds and incubated for 60 minutes at room temperature. The plate was subsequently read on a fluorescence plate reader, and the emissions ratio was calculated to determine the ratio of Ser/Thr 07 phosphorylated by the reaction. Emissions Ratio=Coumarin Emission (443 nm)/Flourescein Emission (520 nm).

[2] = biological target: T2, IRAK1 (Homo sapiens, UniProt P51617); experiment: IRAK1 enzymatic assay (Adapta Universal Kinase Assay, ThermoFisher); assay type: biochemical; settings: 60 minutes at room temperature
T2 construct: purchased ThermoFisher
Procedure: To measure the IC50 values of the compounds herein against IRAK1, the Adapta Universal Kinase Assay (ThermoFisher) was used. Briefly, 100 nL of different concentrations of the compounds in 100% DMSO were added to each well of a 384-well plate (Corning Cat. #4512). 2.4 μL of 30 mM HEPES, 2.5 μL of 4×ATP solution (in water), and 5 μL of 2×IRAK1/Histone H3 (1-20) peptide mixture (prepared in 50 mM HEPES pH 7.5, 0.01% BRIJ-35, 10 mM MgCl2, 1 mM EGTA) were added to each well. The plate was shaken for 30 seconds and centrifuged for 1 minute at 1000×g. The plate was then incubated at room temperature for 60 minutes. 5 μL of Detection Mix was added to each well. The plate was shaken for 30 seconds and centrifuged for 1 minute at 1000×g. The plate was then incubated at room temperature for 60 minutes. The plate was subsequently read on a fluorescence plate reader, and the emissions ratio was calculated to determine the ratio of ATP to ADP. Emissions Ratio=AF647 Emission (665 nm)/Europium Emission (615 nm).

[3] = test system: BCWM.1; experiment: CellTiter-Glo Luminescent cell viability assay, BCWM.1; assay type: cell-based; settings: BCWM1, BCWM.1 cell line, 72 hours at 37° C., read-out: ED50 (the source's name)
Procedure: (§1) The CellTiter-Glo® Luminescent cell viability assay (Promega, Madison WI) was used to assess the dose-response of inhibitors alone or in combination. Cells were seeded into 384 well plates with the EL406 Combination Washer Dispenser (BioTek Instruments, Inc.) and inhibitors were injected into culture media with the JANUS Automated Workstation (PerkinElmer Inc., Waltham MA). Cells were incubated with inhibitors for 72 hours at 37° C. Luminescent measurements to assess cell viability were performed using the 2104 Envision® Multilabel Reader (PerkinElmer Inc.). Drug interactions were assessed by CalcuSyn 2.0 software (Biosoft, Cambridge UK) based on Chou TC.

[4] = test system: MWCL-1; experiment: CellTiter-Glo Luminescent cell viability assay, MWCL-1; assay type: cell-based; settings: MWCL-1 cell line, 72 hours at 37° C., read-out: ED50 (the source's name)
Procedure: as §1

[5] = test system: TMD8; experiment: CellTiter-Glo Luminescent cell viability assay, TMD8; assay type: cell-based; settings: Homo sapiens, TMD8 cell line, 72 hours at 37° C., read-out: ED50 (the source's name)
Procedure: as §1

[6] = test system: HBL-1; experiment: CellTiter-Glo Luminescent cell viability assay, HBL-1; assay type: cell-based; settings: HBL1, HBL-1 cell line, 72 hours at 37° C., read-out: ED50 (the source's name)
Procedure: as §1

[7] = test system: OCI-Ly7; experiment: CellTiter-Glo Luminescent cell viability assay, OCI-Ly7; assay type: cell-based; settings: Homo sapiens, OCI-Ly7 cell line, 72 hours at 37° C., read-out: ED50 (the source's name)
Procedure: as §1

[8] = test system: OCI-Ly19; experiment: CellTiter-Glo Luminescent cell viability assay, OCI-Ly19; assay type: cell-based; settings: Homo sapiens, OCI-Ly19 cell line, 72 hours at 37° C., read-out: ED50 (the source's name)
Procedure: as §1

[9] = test system: Ramos; experiment: CellTiter-Glo Luminescent cell viability assay, Ramos; assay type: cell-based; settings: Homo sapiens, Ramos cell line, 72 hours at 37° C., read-out: ED50 (the source's name)
Procedure: as §1

[10] = test system: RPMI-8226; experiment: CellTiter-Glo Luminescent cell viability assay, RPMI-8226; assay type: cell-based; settings: Homo sapiens, RPMI-8226 cell line, 72 hours at 37° C., read-out: ED50 (the source's name)
Procedure: as §1

[11] = test system: SU-DHL-6; experiment: CellTiter-Glo Luminescent cell viability assay, SU-DHL-6; assay type: cell-based; settings: Homo sapiens, SU-DHL-6 cell line, 72 hours at 37° C., read-out: ED50 (the source's name)
Procedure: as §1

[12] = test system: JeKo-1; experiment: CellTiter-Glo Luminescent cell viability assay, JeKo-1; assay type: cell-based; settings: Homo sapiens, JeKo-1 cell line, 72 hours at 37° C., read-out: ED50 (the source's name)
Procedure: as §1

[13] = test system: multiple cell lines; experiment: Cellular IRAK4 inhibitory activity screened across multiple cell lines; assay type: cell-based
Procedure: as §1, with “TC. Cellular IRAK4 inhibitory activities of compound 015 and two commercial IRAK4 inhibitors, CA-4948 and PF06650833, were screened across multiple cell lines.” for “TC.”

T2 sequence (P51617 whole entry): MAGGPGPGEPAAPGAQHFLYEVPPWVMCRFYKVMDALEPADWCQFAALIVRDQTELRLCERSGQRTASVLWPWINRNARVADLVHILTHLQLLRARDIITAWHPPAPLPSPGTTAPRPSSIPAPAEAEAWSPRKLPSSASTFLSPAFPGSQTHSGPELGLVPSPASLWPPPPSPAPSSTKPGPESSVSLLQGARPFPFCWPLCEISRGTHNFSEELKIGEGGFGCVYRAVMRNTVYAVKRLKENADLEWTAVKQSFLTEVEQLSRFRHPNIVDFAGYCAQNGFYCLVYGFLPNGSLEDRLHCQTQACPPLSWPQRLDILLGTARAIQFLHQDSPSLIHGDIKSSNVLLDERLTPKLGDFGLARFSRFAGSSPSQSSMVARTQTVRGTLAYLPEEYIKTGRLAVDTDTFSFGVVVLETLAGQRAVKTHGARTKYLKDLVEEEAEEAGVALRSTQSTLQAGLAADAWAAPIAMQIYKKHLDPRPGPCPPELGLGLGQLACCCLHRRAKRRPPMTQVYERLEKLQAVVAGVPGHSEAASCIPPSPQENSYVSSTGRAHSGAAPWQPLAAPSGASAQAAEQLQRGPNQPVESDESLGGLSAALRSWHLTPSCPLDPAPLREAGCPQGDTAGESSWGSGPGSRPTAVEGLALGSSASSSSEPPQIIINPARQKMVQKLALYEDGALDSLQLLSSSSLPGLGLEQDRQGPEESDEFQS

Row | IC50 [1] | IC50 [2] | EC50 [7] | EC50 [8] | EC50 [9] | EC50 [10] | EC50 [11] | SMILES | EC50 [3] | EC50 [4] | EC50 [5] | EC50 [6] | EC50 [12] | Potency compared with CA-4948 and PF06650833 [13]
1 | 9 nM | 450 nM | 3.11 µM | 1220 nM | 0.362 µM | 6.78 µM | 1.72 µM | Cc1ccc(-n2nc(C3CCN(C(C)C)CC3)cc2NC(=O)c2cccc(-c3cnn(CC(N)=O)c3)n2)nc1 [Compound 015, 6-(1-(2-amino-2-oxoethyl)-1H-pyrazol-4-yl)-N-(3-(1-isopropylpiperidin-4-yl)-1-(5-methylpyridin-2-yl)-1H-pyrazol-5-yl)picolinamide] | 3.33 µM | 6.92 µM | 3.92 µM | 2.2 µM | 6.26 µM | more potent in most cell lines
2 | – | – | 9.8 µM | 5870 nM | 28.7 µM | 80.5 µM | – | CC[C@@H]1[C@H](F)C(=O)N[C@@H]1COc1nccc2cc(C(N)=O)c(OC)cc12 [PF06650833] | 11 µM | 18.3 µM | 24.1 µM | 14.8 µM | – | –
3 | – | – | 13 µM | 2200 nM | – | 14 µM | 8.69 µM | Cc1cc(-c2nc(C(=O)Nc3cc4oc(N5CCOCC5)nc4nc3N3CC[C@@H](O)C3)co2)ccn1 [CA-4948] | 1.99 µM | 11.9 µM | 9.37 µM | 11.1 µM | 6.57 µM | –
